For 38 molecules, IC50 results are on record in patent US11530210B2, “Substituted heteroaromatic pyrazolo-pyridines and their use as GLUN2B receptor modulators” (JANSSEN PHARMACEUTICA NV, priority 2019, dated 2022).

For this experiment, the target named is T1, human GluN1/GluN2B NMDA receptors (Homo sapiens, UniProt Q13224).
T1 construct: expressed in transfected cells
Briefly: Calcium flux (FLIPR) assay on cloned human NR1/GluN2B ion channels expressed in mammalian cells (standard and HTS variants). It is filed as cell-based. Conditions: cells expressing human GluN1/GluN2B, glutamate and glycine co-agonists. In short, it runs like this:
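Calcium influx read by FLIPR after co-agonist addition (glycine 10 μM, glutamate near EC40) following 5 min compound preincubation, with signal normalized to control wells.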

As usually defined, the IC50 is the point on the concentration scale where inhibition reaches its midpoint.

Where a name gives a salt, the structure may show the parent alone.

T1 sequence (Q13224 27-1484, other chains not shown): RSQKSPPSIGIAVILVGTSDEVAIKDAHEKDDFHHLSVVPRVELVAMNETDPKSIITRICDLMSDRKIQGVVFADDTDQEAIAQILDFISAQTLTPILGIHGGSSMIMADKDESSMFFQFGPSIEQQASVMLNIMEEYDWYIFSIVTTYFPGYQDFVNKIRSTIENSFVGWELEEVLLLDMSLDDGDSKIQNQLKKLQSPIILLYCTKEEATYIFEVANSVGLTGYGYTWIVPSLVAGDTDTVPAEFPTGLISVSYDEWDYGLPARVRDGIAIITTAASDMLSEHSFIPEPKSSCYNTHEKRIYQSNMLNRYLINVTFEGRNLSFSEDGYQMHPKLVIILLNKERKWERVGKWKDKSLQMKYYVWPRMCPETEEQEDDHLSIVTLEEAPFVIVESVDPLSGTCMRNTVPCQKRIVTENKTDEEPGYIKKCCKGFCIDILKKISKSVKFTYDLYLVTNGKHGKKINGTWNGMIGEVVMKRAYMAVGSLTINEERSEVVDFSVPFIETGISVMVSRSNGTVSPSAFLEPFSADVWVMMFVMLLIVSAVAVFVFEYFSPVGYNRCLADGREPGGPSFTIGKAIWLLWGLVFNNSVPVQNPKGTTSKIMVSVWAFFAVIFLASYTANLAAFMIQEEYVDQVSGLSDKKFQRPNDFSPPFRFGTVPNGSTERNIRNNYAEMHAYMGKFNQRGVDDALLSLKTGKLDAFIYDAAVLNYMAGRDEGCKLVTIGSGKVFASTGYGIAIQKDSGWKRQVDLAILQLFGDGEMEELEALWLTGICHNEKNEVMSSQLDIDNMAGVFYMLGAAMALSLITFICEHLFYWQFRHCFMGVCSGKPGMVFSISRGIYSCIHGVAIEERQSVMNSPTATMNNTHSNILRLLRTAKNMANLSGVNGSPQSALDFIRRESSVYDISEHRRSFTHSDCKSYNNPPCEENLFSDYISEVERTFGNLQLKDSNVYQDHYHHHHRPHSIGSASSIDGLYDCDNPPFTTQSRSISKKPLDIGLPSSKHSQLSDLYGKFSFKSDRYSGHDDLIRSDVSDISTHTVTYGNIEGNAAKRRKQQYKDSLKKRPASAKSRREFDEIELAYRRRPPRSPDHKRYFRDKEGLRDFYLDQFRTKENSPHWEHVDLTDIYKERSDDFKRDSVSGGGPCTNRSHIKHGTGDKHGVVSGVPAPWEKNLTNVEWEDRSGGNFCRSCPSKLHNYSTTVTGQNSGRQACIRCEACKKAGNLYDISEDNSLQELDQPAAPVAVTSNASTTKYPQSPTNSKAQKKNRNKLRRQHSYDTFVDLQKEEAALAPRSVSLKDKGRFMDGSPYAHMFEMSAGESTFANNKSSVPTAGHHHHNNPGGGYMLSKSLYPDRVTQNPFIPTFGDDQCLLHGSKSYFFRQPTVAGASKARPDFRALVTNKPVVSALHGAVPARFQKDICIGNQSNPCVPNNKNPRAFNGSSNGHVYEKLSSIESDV

As for `CC(F)(F)c1cccc(-c2cnc3cnn(Cc4cncnc4)c3c2)c1` [Example 274, 6-[3-(1,1-Difluoroethyl)phenyl]-1-(pyrimidin-5-ylmethyl)pyrazolo[4,3-b]pyridine], the concentration for half-maximal inhibition (IC50) came out at 51 nM.

On to `Cc1nccc(Cn2ncc3ncc(-c4cccc(C(F)(F)F)c4)cc32)n1` [Example 283, 1-[(2-Methylpyrimidin-4-yl)methyl]-6-[3-(trifluoromethyl)phenyl]pyrazolo[4,3-b]pyridine], for which the 50% inhibitory concentration (IC50) came to 3250 nM.

With `Cc1ncccc1Cn1ncc2ncc(-c3ccc(F)c(F)c3)cc21` [Example 188, 6-(3,4-Difluorophenyl)-1-[(2-methyl-3-pyridyl)methyl]pyrazolo[4,3-b]pyridine], the IC50 was found to be 3620 nM.

As for `CNc1nnc(Cn2ncc3ncc(-c4ccc(F)c(C(F)F)c4)cc32)s1` [Example 126, 5-((6-(3-(difluoromethyl)-4-fluorophenyl)-1H-pyrazolo[4,3-b]pyridin-1-yl)methyl)-N-methyl-1,3,4-thiadiazol-2-amine], the IC50 worked out at 1620 nM.

On to `Cc1cc(Cn2ncc3ncc(-c4cccc(C(C)(F)F)c4)cc32)no1` [Example 45, 3-[[6-[3-(1,1-Difluoroethyl)phenyl]pyrazolo[4,3-b]pyridin-1-yl]methyl]-5-methyl-isoxazole], for which the IC50 worked out at 44 nM.

Take `COc1cncc(Cn2ncc3ncc(-c4ccc(F)c(F)c4)cc32)c1` [Example 193, 6-(3,4-Difluorophenyl)-1-[(5-methoxy-3-pyridyl)methyl]pyrazolo[4,3-b]pyridine]: the IC50 was 277 nM.

`Cn1cnc(Cn2ncc3ncc(-c4cccc(C(F)(F)F)c4)cc32)c1` [Example 36, 1-[(1-Methylimidazol-4-yl)methyl]-6-[3-(trifluoromethyl)phenyl]pyrazolo[4,3-b]pyridine]: the IC50 stood at 668 nM.

As for `COc1ccc(Cn2ncc3ncc(-c4cccc(C(F)(F)F)c4)cc32)cc1` [Example 24, 1-[(4-Methoxyphenyl)methyl]-6-[3-(trifluoromethyl)phenyl]pyrazolo[4,3-b]pyridine hydrochloride salt], the IC50 was 7930 nM.

Regarding `Fc1cc(F)cc(Cn2ncc3ncc(-c4ccc(F)c(C(F)F)c4)cc32)c1` [Example 27, 6-[3-(Difluoromethyl)-4-fluoro-phenyl]-1-[(3,5-difluorophenyl)methyl]pyrazolo[4,3-b]pyridine], the IC50 was determined as 394 nM.

Turning to `Cc1noc(Cn2ncc3ncc(-c4cc(F)cc(C(F)(F)F)c4)cc32)n1` [Example 108, 5-[[6-[3-Fluoro-5-(trifluoromethyl)phenyl]pyrazolo[4,3-b]pyridin-1-yl]methyl]-3-methyl-1,2,4-oxadiazole], the IC50 was 815 nM.

Consider `Cc1cc(Cn2ncc3ncc(-c4cccc(C(F)(F)F)c4)cc32)no1` [Example 47, 5-Methyl-3-[[6-[3-(trifluoromethyl)phenyl]pyrazolo[4,3-b]pyridin-1-yl]methyl]isoxazole], for which the IC50 was determined as 148 nM.

Regarding `Cc1cc(Cn2ncc3ncc(-c4cccc(C(F)(F)F)c4)cc32)[nH]n1` [Example 14, 1-[(3-Methyl-1H-pyrazol-5-yl)methyl]-6-[3-(trifluoromethyl)phenyl]pyrazolo[4,3-b]pyridine], the IC50 was determined as 4740 nM.

As to `Cc1nnc(Cn2ncc3ncc(-c4ccc(F)c(C(C)(F)F)c4)cc32)o1` [Example 104, 2-[[6-[3-(1,1-Difluoroethyl)-4-fluoro-phenyl]pyrazolo[4,3-b]pyridin-1-yl]methyl]-5-methyl-1,3,4-oxadiazole], the IC50 worked out at 244 nM.

As for `Cc1cncc(Cn2ncc3ncc(-c4ccc(F)c(OC(F)F)c4)cc32)c1` [Example 224, 6-[3-(Difluoromethoxy)-4-fluoro-phenyl]-1-[(5-methyl-3-pyridyl)methyl]pyrazolo[4,3-b]pyridine], the IC50 was 56 nM.

On to `Cc1cc(Cn2ncc3ncc(-c4ccc(F)cc4)cc32)on1` [Example 42, 5-[[6-(4-Fluorophenyl)pyrazolo[4,3-b]pyridin-1-yl]methyl]-3-methyl-isoxazole], for which the IC50 came out at 475 nM.

Consider `Fc1ccc(Cn2ncc3ncc(-c4ccc(C(F)(F)F)s4)cc32)cn1` [Example 143, 1-((6-Fluoropyridin-3-yl)methyl)-6-(5-(trifluoromethyl)thiophen-2-yl)-1H-pyrazolo[4,3-b]pyridine], for which the IC50 was 132 nM.

Consider `Cc1cncc(Cn2ncc3ncc(-c4cccc(C(C)(F)F)c4)cc32)c1` [Example 160, 6-[3-(1,1-Difluoroethyl)phenyl]-1-[(5-methyl-3-pyridyl)methyl]pyrazolo[4,3-b]pyridine], for which the IC50 stood at 112 nM.

Regarding `Cc1c(F)ccc(-c2cnc3cnn(Cc4ccccn4)c3c2)c1F` [Example 244, 6-(2,4-Difluoro-3-methyl-phenyl)-1-(2-pyridylmethyl)pyrazolo[4,3-b]pyridine], the IC50 came out at 310 nM.

`OCc1nnc(Cn2ncc3ncc(-c4ccc(F)c(C(F)F)c4)cc32)o1` [Example 292, (5-((6-(3-(Difluoromethyl)-4-fluorophenyl)-1H-pyrazolo[4,3-b]pyridin-1-yl)methyl)-1,3,4-oxadiazol-2-yl)methanol]: the IC50 is 170 nM.

Regarding `CC(F)(F)c1cc(-c2cnc3cnn(Cc4cncnc4)c3c2)ccc1F` [Example 277, 6-[3-(1,1-Difluoroethyl)-4-fluoro-phenyl]-1-(pyrimidin-5-ylmethyl)pyrazolo[4,3-b]pyridine], the IC50 came to 65 nM.

For `N#Cc1cccc(Cn2ncc3ncc(-c4ccc(F)c(OC(F)F)c4)cc32)c1` [Example 29, 3-[[6-[3-(Difluoromethoxy)-4-fluoro-phenyl]pyrazolo[4,3-b]pyridin-1-yl]methyl]benzonitrile], the IC50 amounted to 65 nM.

As for `Fc1ccc(-c2cnc3cnn(Cc4cncnc4)c3c2)cc1OC(F)F` [Example 278, 6-[3-(Difluoromethoxy)-4-fluoro-phenyl]-1-(pyrimidin-5-ylmethyl)pyrazolo[4,3-b]pyridine], the IC50 was 52 nM.

`Cc1cnc(Cn2ncc3ncc(-c4ccc(F)c(C)c4F)cc32)o1` [Example 9, 2-[[6-(2,4-Difluoro-3-methyl-phenyl)pyrazolo[4,3-b]pyridin-1-yl]methyl]-5-methyl-oxazole]: the IC50 turned out to be 78 nM.

As for `Fc1ccc(-c2cnc3cnn(Cc4ccon4)c3c2)cc1C(F)F` [Example 51, 3-[[6-[3-(Difluoromethyl)-4-fluoro-phenyl]pyrazolo[4,3-b]pyridin-1-yl]methyl]isoxazole], the IC50 turned out to be 23 nM.

In the case of `CC(F)(F)c1cc(-c2cnc3cnn(Cc4cncc(C#N)c4)c3c2)ccc1Cl` [Example 236, 5-[[6-[4-Chloro-3-(1,1-difluoroethyl)phenyl]pyrazolo[4,3-b]pyridin-1-yl]methyl]pyridine-3-carbonitrile], the IC50 is 494 nM.

Turning to `Fc1cncc(Cn2ncc3ncc(-c4cccc(OC(F)F)c4)cc32)c1` [Example 159, 6-[3-(Difluoromethoxy)phenyl]-1-[(5-fluoro-3-pyridyl)methyl]pyrazolo[4,3-b]pyridine], the IC50 worked out at 249 nM.

Turning to `COc1ncccc1Cn1ncc2ncc(-c3ccc(F)c(C(F)F)c3)cc21` [Example 206, 6-[3-(Difluoromethyl)-4-fluoro-phenyl]-1-[(2-methoxy-3-pyridyl)methyl]pyrazolo[4,3-b]pyridine], the IC50 came out at 307 nM.

Turning to `Cc1nnc(Cn2ncc3ncc(-c4ccnc(C(F)(F)F)c4)cc32)o1` [Example 88, 2-Methyl-5-[[6-[2-(trifluoromethyl)-4-pyridyl]pyrazolo[4,3-b]pyridin-1-yl]methyl]-1,3,4-oxadiazole], the IC50 was found to be 467 nM.

Regarding `Cn1cnc(Cn2ncc3ncc(-c4ccc(F)c(C(F)F)c4)cc32)n1` [Example 73, 6-[3-(Difluoromethyl)-4-fluoro-phenyl]-1-[(1-methyl-1,2,4-triazol-3-yl)methyl]pyrazolo[4,3-b]pyridine], the IC50 was determined as 383 nM.

`FC(F)(F)c1cccc(-c2cnc3cnn(Cc4ncno4)c3c2)c1` [Example 87, 5-[[6-[3-(Trifluoromethyl)phenyl]pyrazolo[4,3-b]pyridin-1-yl]methyl]-1,2,4-oxadiazole]: the IC50 was found to be 383 nM.

With `Fc1cccc(-c2cnc3cnn(Cc4ccccn4)c3c2)c1` [Example 152, 6-(3-Fluorophenyl)-1-(2-pyridylmethyl)pyrazolo[4,3-b]pyridine], the IC50 is 2180 nM.

For the molecule `Cc1cnc(Cn2ncc3ncc(-c4ccc(F)c(C)c4F)cc32)s1` [Example 70, 2-[[6-(2,4-Difluoro-3-methyl-phenyl)pyrazolo[4,3-b]pyridin-1-yl]methyl]-5-methyl-thiazole], the IC50 amounted to 350 nM.

In the case of `FC(F)c1cccc(-c2cnc3cnn(Cc4cncc(Cl)c4)c3c2)c1` [Example 158, 1-[(5-Chloro-3-pyridyl)methyl]-6-[3-(difluoromethyl)phenyl]pyrazolo[4,3-b]pyridine], the IC50 was 14 nM.

In the case of `Fc1ccc(-c2cnc3cnn(Cc4cncc(Cl)c4)c3c2)cc1OC(F)F` [Example 231, 1-[(5-Chloro-3-pyridyl)methyl]-6-[3-(difluoromethoxy)-4-fluoro-phenyl]pyrazolo[4,3-b]pyridine], the IC50 amounted to 39 nM.

With `Cc1ncc(Cn2ncc3ncc(-c4ccc(F)c(C(F)F)c4)cc32)o1` [Example 54, 5-[[6-[3-(Difluoromethyl)-4-fluoro-phenyl]pyrazolo[4,3-b]pyridin-1-yl]methyl]-2-methyl-oxazole], the IC50 came out at 133 nM.

With `Cc1cc(Cn2ncc3ncc(-c4ccc(F)c(OC(F)F)c4)cc32)no1` [Example 59, 3-[[6-[3-(Difluoromethoxy)-4-fluoro-phenyl]pyrazolo[4,3-b]pyridin-1-yl]methyl]-5-methyl-isoxazole], the IC50 was 61 nM.

For `Cc1cncc(Cn2ncc3ncc(-c4cc(C)cs4)cc32)c1` [Example 138, 1-[(5-Methyl-3-pyridyl)methyl]-6-(4-methyl-2-thienyl)pyrazolo[4,3-b]pyridine], the IC50 was found to be 159 nM.

For the molecule `COc1cncc(Cn2ncc3ncc(-c4ccc(Cl)c(OC(F)F)c4)cc32)c1` [Example 242, 6-[4-Chloro-3-(difluoromethoxy)phenyl]-1-[(5-methoxy-3-pyridyl)methyl]pyrazolo[4,3-b]pyridine], the IC50 came to 500 nM.
